The results in this text go back to PubChem BioAssay (NCI).

Among the test systems are SK-OV-3 ovarian; HOP-62 NSCLC; MDA-N; HOP-92 NSCLC; RXF 393 renal; KM12 colon; NCI-H460 lung; OVCAR-3 ovarian; U251 CNS; A549 NSCLC.
Holding throughout (experiment): DTP human tumour cell line panel, 48 h

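Five concentrations, 48 hours, 96-well plates. TGI: concentration producing complete growth inhibition.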 Bounds are passed on as bounds.

As to `N#CCCN(CCC#N)c1ccc(/C=C2\SC(=S)NC2=O)cc1`, the TGI with SK-OV-3 ovarian, with HOP-62 NSCLC, with MDA-N, with HOP-92 NSCLC, in the experiment with RXF 393 renal and in the experiment with KM12 colon was greater than 100 µM throughout. Besides, the TGI with NCI-H460 lung was greater than 100 µM; with OVCAR-3 ovarian, greater than 100 µM; in the experiment with U251 CNS, 47 µM; in the experiment with A549 NSCLC, greater than 100 µM.
Regarding `CCCCOc1c(C(=O)O)cc(Br)cc1C(=O)O`, the total growth inhibition concentration (TGI) in the experiment with SK-OV-3 ovarian, with HOP-62 NSCLC, in the experiment on MDA-N, in the experiment with HOP-92 NSCLC, with RXF 393 renal and in the experiment on KM12 colon was greater than 100 µM in each case. Moreover, the TGI with NCI-H460 lung, in the experiment with OVCAR-3 ovarian, with U251 CNS and in the experiment on A549 NSCLC was greater than 100 µM in each case.
`N/C(=N\NC(=O)c1nc2ccccc2s1)c1ccccn1`: the concentration for total growth inhibition (TGI) is 29.5 µM in the experiment with SK-OV-3 ovarian; greater than 57.6 µM in the experiment with HOP-62 NSCLC; greater than 100 µM with MDA-N; greater than 100 µM in the experiment with HOP-92 NSCLC; greater than 69 µM in the experiment with RXF 393 renal; greater than 100 µM in the experiment with KM12 colon. Moreover, the TGI in the experiment on NCI-H460 lung was 17.9 µM; in the experiment with OVCAR-3 ovarian, greater than 100 µM; with U251 CNS it was greater than 60.9 µM; with A549 NSCLC, greater than 52.7 µM.
For `CCCCC(=C=C(C)CO)C1CCCN1C(=O)OC(C)(C)C` (stereo not given), the TGI turned out to be 67.4 µM in the experiment on SK-OV-3 ovarian; 39.1 µM with HOP-62 NSCLC; 34.2 µM in the experiment with MDA-N; 25.6 µM with HOP-92 NSCLC; 29.4 µM in the experiment with RXF 393 renal; 34.8 µM with KM12 colon. For the same compound, the TGI in the experiment with NCI-H460 lung was 31.8 µM; in the experiment on OVCAR-3 ovarian, 31.8 µM; in the experiment with U251 CNS, 31.7 µM; with A549 NSCLC, 48.1 µM.
For the compound `Cc1nc(N)sc1C(=O)Nc1ncn[nH]1`, the TGI in the experiment on SK-OV-3 ovarian, in the experiment on HOP-62 NSCLC, in the experiment with MDA-N, with HOP-92 NSCLC, in the experiment on RXF 393 renal and in the experiment on KM12 colon was greater than 100 µM in each case. Besides, the concentration for total growth inhibition (TGI) in the experiment on NCI-H460 lung, in the experiment on OVCAR-3 ovarian, in the experiment with U251 CNS and in the experiment with A549 NSCLC was greater than 100 µM in each case.
As to `COC(=O)CCCC1(CCCC(=O)OC)CCCCCCCCC(CCCC(=O)OC)(CCCC(=O)OC)C(=O)C1=O`, the concentration for total growth inhibition (TGI) is greater than 100 µM in the experiment with SK-OV-3 ovarian; greater than 100 µM in the experiment with HOP-62 NSCLC; greater than 100 µM in the experiment with MDA-N; 39 µM with HOP-92 NSCLC; 69.9 µM with RXF 393 renal; greater than 100 µM in the experiment with KM12 colon. Moreover, the TGI is greater than 100 µM in the experiment with NCI-H460 lung, 79.7 µM in the experiment on OVCAR-3 ovarian, 40.7 µM in the experiment with U251 CNS and 29.9 µM in the experiment with A549 NSCLC.
For the compound `C[C@@H](NC(=O)[C@@H]1C[C@]1(C)CO)c1cccc2ccccc12`, the total growth inhibition concentration (TGI) with SK-OV-3 ovarian, in the experiment on HOP-62 NSCLC, in the experiment on MDA-N, in the experiment on HOP-92 NSCLC, in the experiment with RXF 393 renal and in the experiment on KM12 colon was greater than 100 µM in each case. Further, the total growth inhibition concentration (TGI) with NCI-H460 lung, in the experiment on OVCAR-3 ovarian, with U251 CNS and in the experiment on A549 NSCLC was greater than 100 µM each time.
`C=CC(C)(C)C1(CC(OC)OC)C(=O)N(C)c2ccccc21` (stereo not given): the total growth inhibition concentration (TGI) in the experiment on SK-OV-3 ovarian, in the experiment with HOP-62 NSCLC, in the experiment on MDA-N, in the experiment with HOP-92 NSCLC, with RXF 393 renal and in the experiment on KM12 colon was greater than 25 µM in each case. In addition, the concentration for total growth inhibition (TGI) with NCI-H460 lung, in the experiment on OVCAR-3 ovarian, with U251 CNS and in the experiment with A549 NSCLC was greater than 25 µM each time.
For `Cc1ccc(/C(O)=C/c2nc3cccnc3[nH]c2=O)cc1`, the TGI is greater than 100 µM in the experiment with SK-OV-3 ovarian; 85.9 µM in the experiment on HOP-62 NSCLC; greater than 100 µM with MDA-N; greater than 100 µM in the experiment on HOP-92 NSCLC; 80.1 µM in the experiment on RXF 393 renal; greater than 100 µM in the experiment with KM12 colon. The TGI in the experiment on NCI-H460 lung, with OVCAR-3 ovarian, in the experiment with U251 CNS and in the experiment with A549 NSCLC was greater than 100 µM each time.
Take `O=C(NNS(=O)(=O)c1ccc(Br)cc1)c1ccc(Cl)cc1NC(=O)C12CC3CC(CC(C3)C1)C2`: the TGI in the experiment on SK-OV-3 ovarian came to 30.3 µM; in the experiment on HOP-62 NSCLC, 47.8 µM; with MDA-N, 32.2 µM; with HOP-92 NSCLC, 27.3 µM; in the experiment on RXF 393 renal it was 31.6 µM; with KM12 colon it was 85.7 µM. Also, the total growth inhibition concentration (TGI) in the experiment on NCI-H460 lung came to 23.4 µM; with OVCAR-3 ovarian, 26.5 µM; in the experiment with U251 CNS it was 22.7 µM; in the experiment on A549 NSCLC, 21.4 µM.
In the case of `C/C(=N/NC(=S)N(C)C)c1ccccc1O`, the TGI in the experiment with SK-OV-3 ovarian, with HOP-62 NSCLC, with MDA-N, in the experiment with HOP-92 NSCLC, with RXF 393 renal and in the experiment on KM12 colon was greater than 100 µM in each case. For the same compound, the TGI with NCI-H460 lung is 30.1 µM; in the experiment with OVCAR-3 ovarian it was greater than 26.3 µM; with U251 CNS, greater than 100 µM; in the experiment on A549 NSCLC it was greater than 100 µM.
In the case of `Nc1nc(Nc2ccc(Cl)cc2)sc1C(=O)c1c[nH]c2ccccc12`, the concentration for total growth inhibition (TGI) amounted to 46.4 µM with SK-OV-3 ovarian; 46.9 µM with HOP-62 NSCLC; 25.3 µM with MDA-N; 36.2 µM in the experiment with HOP-92 NSCLC; 44.1 µM in the experiment with RXF 393 renal; 51.1 µM in the experiment on KM12 colon. Besides, the concentration for total growth inhibition (TGI) was 21.3 µM with NCI-H460 lung, 36 µM with OVCAR-3 ovarian, 25.1 µM with U251 CNS and 29.5 µM in the experiment with A549 NSCLC.
Regarding `CN(C)C(=S)/N=c1\ssc(=S)n1Cc1cccs1`, the TGI with SK-OV-3 ovarian was greater than 90 µM; with HOP-62 NSCLC, 81.3 µM; with MDA-N it was 2.85 µM; in the experiment with HOP-92 NSCLC, greater than 89.1 µM; in the experiment on RXF 393 renal it was 23.9 µM; with KM12 colon, greater than 100 µM. In addition, the TGI was greater than 89.7 µM in the experiment on NCI-H460 lung, 6.57 µM in the experiment on OVCAR-3 ovarian, 69.9 µM in the experiment with U251 CNS and greater than 91.4 µM in the experiment with A549 NSCLC.
For the compound `N#C/C(=C/n1c(=S)[nH]c2ccccc21)C(N)=O`, the concentration for total growth inhibition (TGI) in the experiment on SK-OV-3 ovarian, with HOP-62 NSCLC, in the experiment on MDA-N, in the experiment with HOP-92 NSCLC, with RXF 393 renal and in the experiment on KM12 colon was greater than 100 µM in each case. Also, the TGI in the experiment with NCI-H460 lung, with OVCAR-3 ovarian, in the experiment on U251 CNS and in the experiment with A549 NSCLC was greater than 100 µM each time.
As for `COC1=CC(=O)c2c(cc(COP(N)(=O)N(CCCl)CCCl)n2C)C1=O` (stereo not given), the TGI was found to be 5.9 µM with SK-OV-3 ovarian; 7.88 µM in the experiment on HOP-62 NSCLC; 4.09 µM in the experiment with MDA-N; 6.66 µM with HOP-92 NSCLC; 2.95 µM with RXF 393 renal; 5.02 µM in the experiment on KM12 colon. In addition, the total growth inhibition concentration (TGI) came to 4.31 µM in the experiment on NCI-H460 lung, 2.37 µM in the experiment on OVCAR-3 ovarian, 6.77 µM in the experiment with U251 CNS and 4.31 µM in the experiment with A549 NSCLC.
With `O=C(/C=C/c1ccc(OCc2ccccc2)cc1)NCc1ccc(C(=O)NCc2ccccc2)cc1`, the TGI in the experiment with SK-OV-3 ovarian, in the experiment with HOP-62 NSCLC, with MDA-N, in the experiment on HOP-92 NSCLC, in the experiment with RXF 393 renal and with KM12 colon was greater than 100 µM in each case. For the same compound, the concentration for total growth inhibition (TGI) in the experiment with NCI-H460 lung, in the experiment with OVCAR-3 ovarian, in the experiment on U251 CNS and with A549 NSCLC was greater than 100 µM each time.
On to `O=S(c1ccccc1)C1CC2CC3(CCC21O)OCCO3` (stereo not given), for which the total growth inhibition concentration (TGI) in the experiment with SK-OV-3 ovarian, in the experiment with HOP-62 NSCLC, with MDA-N, in the experiment with HOP-92 NSCLC, in the experiment with RXF 393 renal and in the experiment on KM12 colon was greater than 100 µM each time. Further, the TGI in the experiment with NCI-H460 lung, in the experiment on OVCAR-3 ovarian, in the experiment with U251 CNS and with A549 NSCLC was greater than 100 µM throughout.
With `CC(=O)NNc1nc(C)c(C(/C=C/c2ccc([N+](=O)[O-])cc2)=N/NC(N)=O)s1`, the TGI in the experiment with SK-OV-3 ovarian, in the experiment on HOP-62 NSCLC, in the experiment on MDA-N, with HOP-92 NSCLC, in the experiment with RXF 393 renal and in the experiment with KM12 colon was greater than 100 µM in each case. In addition, the TGI in the experiment with NCI-H460 lung, with OVCAR-3 ovarian, in the experiment on U251 CNS and in the experiment with A549 NSCLC was greater than 100 µM throughout.
On to `COCCOC(C)C(=O)C(O)S(=O)(=O)O` (stereo not given), for which the concentration for total growth inhibition (TGI) in the experiment on SK-OV-3 ovarian, with HOP-62 NSCLC, in the experiment with MDA-N, with HOP-92 NSCLC, with RXF 393 renal and in the experiment with KM12 colon was greater than 100 µM throughout. In addition, the total growth inhibition concentration (TGI) with NCI-H460 lung, with OVCAR-3 ovarian, with U251 CNS and with A549 NSCLC was greater than 100 µM in each case.
On to `C/C(=N/NC(=S)Nc1cccc(Cl)c1)c1ccccn1`, for which the TGI amounted to 10.4 µM with SK-OV-3 ovarian; 3.5 µM with HOP-62 NSCLC; 15.5 µM in the experiment with MDA-N; 11.1 µM in the experiment on HOP-92 NSCLC; 9.76 µM in the experiment with RXF 393 renal; 13.5 µM with KM12 colon. Also, the TGI was 5.46 µM in the experiment with NCI-H460 lung, 12.3 µM with OVCAR-3 ovarian, 8.26 µM in the experiment with U251 CNS and 10.1 µM in the experiment on A549 NSCLC.
